Data as given in ChEMBL document CHEMBL4265965, “Dichloroacetophenones targeting at pyruvate dehydrogenase kinase 1 with improved selectivity and antiproliferative activity: Synthesis and structure-activity relationships” (Bioorg Med Chem Lett, 2018).
pIC50, pKd: −log10 of the molar value. The source made the active and inactive calls. The rule behind the calls is not given here.

Columns and labels:
A549 [1] = assay: Antiproliferative activity against human A549 cells assessed as inhibition of cell proliferation at 6 uM after 72 hrs by MTT assay relative to control; format: functional; conditions: A549, 72 h
[2] = biological target: T1, [Pyruvate dehydrogenase (acetyl-transferring)] kinase isozyme 1, mitochondrial (Homo sapiens, UniProt Q15118); assay: Inhibition of PDK1 in human NCI-H1975 cells assessed as switch of pyruvate metabolism from lactate production to oxidative phosphorylation by measuring increase in basal oxygen consumption rate at 10 uM incubated for 4 hrs followed by oligomycin addition for 1 hr measured for 16 mins; format: cell-based
[3] = biological target: T1, [Pyruvate dehydrogenase (acetyl-transferring)] kinase isozyme 1, mitochondrial; assay: Inhibition of PDK1 in human NCI-H1975 cells assessed as switch of pyruvate metabolism from lactate production to oxidative phosphorylation by measuring decrease in extracellular acidification rate at 10 uM pretreated for 4 hrs followed by oligomycin addition for 1 hr measured for 16 mins; format: cell-based
[4] = biological target: T1, [Pyruvate dehydrogenase (acetyl-transferring)] kinase isozyme 1, mitochondrial; assay: Binding affinity to recombinant human N-terminal His6/Sumo-tagged PDK1 (29 to 436 residues) expressed in Escherichia coli BL21
NCI-H1975 [5] = assay: Antiproliferative activity against human NCI-H1975 cells assessed as inhibition of cell proliferation at 6 uM after 72 hrs by MTT assay relative to control; format: functional; conditions: NCI-H1975, 72 h
[6] = biological target: T1, [Pyruvate dehydrogenase (acetyl-transferring)] kinase isozyme 1, mitochondrial; assay: Inhibition of PDK1 in human NCI-H1975 cells assessed as switch of pyruvate metabolism from lactate production to oxidative phosphorylation by measuring decrease in extracellular acidification rate at 10 uM pretreated for 4 hrs followed by 2DG addition for 1 hr measured for 16 mins; format: cell-based
[7] = biological target: T1, [Pyruvate dehydrogenase (acetyl-transferring)] kinase isozyme 1, mitochondrial; assay: Inhibition of PDK1 in human NCI-H1975 cells assessed as switch of pyruvate metabolism from lactate production to oxidative phosphorylation by measuring increase in basal oxygen consumption rate at 10 uM incubated for 4 hrs followed by FCCP addition for 1 hr measured for 16 mins; format: cell-based
NCI-H1975 [8] = assay: Antiproliferative activity against human NCI-H1975 cells assessed as inhibition of cell proliferation at 12 uM after 72 hrs by MTT assay relative to control; format: functional; conditions: NCI-H1975, 72 h
NCI-H1650 [9] = assay: Antiproliferative activity against human NCI-H1650 cells assessed as inhibition of cell proliferation at 2 uM after 72 hrs by MTT assay relative to control; format: functional; conditions: NCI-H1650, 72 h
[10] = biological target: T1, [Pyruvate dehydrogenase (acetyl-transferring)] kinase isozyme 1, mitochondrial; assay: Inhibition of PDK1 in human NCI-H1975 cells assessed as switch of pyruvate metabolism from lactate production to oxidative phosphorylation by measuring increase in basal oxygen consumption rate at 10 uM incubated for 4 hrs followed by antimycinA addition for 1 hr measured for 16 mins; format: cell-based
NCI-H1975 [11] = assay: Antiproliferative activity against human NCI-H1975 cells assessed as inhibition of cell proliferation at 2 uM after 72 hrs by MTT assay relative to control; format: functional; conditions: NCI-H1975, 72 h
[12] = biological target: T1, [Pyruvate dehydrogenase (acetyl-transferring)] kinase isozyme 1, mitochondrial; assay: Inhibition of recombinant human N-terminal His6/Sumo-tagged PDK1 (29 to 436 residues) expressed in Escherichia coli BL21 at 1 uM by kinase-glo luminescence assay relative to control
[13] = biological target: RAC-alpha serine/threonine-protein kinase (Homo sapiens, UniProt P31749); assay: Inhibition of AKT phosphorylation in human NCI-H1975 cells at 10 uM after 24 hrs by Western blot analysis; format: cell-based; conditions: nci-h1975, 24 h
[14] = biological target: T1, [Pyruvate dehydrogenase (acetyl-transferring)] kinase isozyme 1, mitochondrial; assay: Inhibition of PDK1 in human NCI-H1975 cells assessed as switch of pyruvate metabolism from lactate production to oxidative phosphorylation by measuring increase in basal oxygen consumption rate at 10 uM incubated for 4 hrs measured for 16 mins; format: cell-based
A549 [15] = assay: Antiproliferative activity against human A549 cells assessed as inhibition of cell proliferation at 2 uM after 72 hrs by MTT assay relative to control; format: functional; conditions: A549, 72 h
NCI-H1650 [16] = assay: Antiproliferative activity against human NCI-H1650 cells assessed as inhibition of cell proliferation at 6 uM after 72 hrs by MTT assay relative to control; format: functional; conditions: NCI-H1650, 72 h
[17] = Inhibition of ERK phosphorylation in human NCI-H1975 cells at 10 uM after 24 hrs by Western blot analysis; format: cell-based; conditions: nci-h1975, 24 h
[18] = biological target: Epidermal growth factor receptor (Homo sapiens, UniProt P00533); assay: Inhibition of EGFR phosphorylation in human NCI-H1975 cells at 10 uM after 24 hrs by Western blot analysis; format: cell-based; conditions: nci-h1975, 24 h
NCI-H1975 [19] = assay: Antiproliferative activity against human NCI-H1975 cells assessed as inhibition of cell proliferation after 72 hrs by MTT assay; format: functional, cell-based; conditions: NCI-H1975, 72 h
NCI-H1650 [20] = assay: Antiproliferative activity against human NCI-H1650 cells assessed as inhibition of cell proliferation at 12 uM after 72 hrs by MTT assay relative to control; format: functional; conditions: NCI-H1650, 72 h
[21] = biological target: T1, [Pyruvate dehydrogenase (acetyl-transferring)] kinase isozyme 1, mitochondrial; assay: Inhibition of PDK1 in human NCI-H1975 cells assessed as switch of pyruvate metabolism from lactate production to oxidative phosphorylation by measuring decrease in extracellular acidification rate at 10 uM pretreated for 4 hrs followed by glucose addition for 1 hr measured for 16 mins; format: cell-based
A549 [22] = assay: Antiproliferative activity against human A549 cells assessed as inhibition of cell proliferation at 12 uM after 72 hrs by MTT assay relative to control; format: functional; conditions: A549, 72 h
[23] = biological target: T1, [Pyruvate dehydrogenase (acetyl-transferring)] kinase isozyme 1, mitochondrial; assay: Inhibition of PDK1 in human NCI-H1975 cells assessed as switch of pyruvate metabolism from lactate production to oxidative phosphorylation by measuring increase in proton leak at 5 uM incubated for 4 hrs followed by oligomycin addition for 1 hr measured for 16 mins; format: cell-based
Sus scrofa [24] = species: Sus scrofa; assay: Inhibition of porcine PDK1 assessed as activation of pyruvate dehydrogenase complex at 1 uM measured after 3 mins
[25] = biological target: T1, [Pyruvate dehydrogenase (acetyl-transferring)] kinase isozyme 1, mitochondrial; assay: Inhibition of PDK1 in human NCI-H1975 cells assessed as switch of pyruvate metabolism from lactate production to oxidative phosphorylation by measuring increase in ATP production at 5 uM incubated for 4 hrs followed by oligomycin addition for 1 hr measured for 16 mins; format: cell-based
[26] = biological target: T1, [Pyruvate dehydrogenase (acetyl-transferring)] kinase isozyme 1, mitochondrial; assay: Inhibition of PDK1 in human NCI-H1975 cells assessed as switch of pyruvate metabolism from lactate production to oxidative phosphorylation by measuring increase in maximum respiration at 5 uM incubated for 4 hrs followed by FCCP addition for 1 hr measured for 16 mins; format: cell-based
[27] = biological target: T1, [Pyruvate dehydrogenase (acetyl-transferring)] kinase isozyme 1, mitochondrial; assay: Inhibition of PDK1 in human NCI-H1975 cells assessed as switch of pyruvate metabolism from lactate production to oxidative phosphorylation by measuring increase in basal oxygen consumption rate at 2.5 to 5 uM incubated for 4 hrs measured for 16 mins; format: cell-based
[28] = biological target: T1, [Pyruvate dehydrogenase (acetyl-transferring)] kinase isozyme 1, mitochondrial; assay: Inhibition of PDK1 in human NCI-H1975 cells assessed as switch of pyruvate metabolism from lactate production to oxidative phosphorylation by measuring increase in basal oxygen consumption rate at 20 uM incubated for 4 hrs measured for 16 mins; format: cell-based
[29] = biological target: T1, [Pyruvate dehydrogenase (acetyl-transferring)] kinase isozyme 1, mitochondrial; assay: Inhibition of PDK1 in human NCI-H1975 cells assessed as switch of pyruvate metabolism from lactate production to oxidative phosphorylation by measuring increase in basal oxygen consumption rate at 20 uM incubated for 4 hrs followed by oligomycin addition for 1 hr measured for 16 mins; format: cell-based
[30] = biological target: T1, [Pyruvate dehydrogenase (acetyl-transferring)] kinase isozyme 1, mitochondrial; assay: Inhibition of PDK1 in human NCI-H1975 cells assessed as switch of pyruvate metabolism from lactate production to oxidative phosphorylation by measuring decrease in extracellular acidification rate at 20 uM pretreated for 4 hrs followed by oligomycin addition for 1 hr measured for 16 mins; format: cell-based
[31] = biological target: T1, [Pyruvate dehydrogenase (acetyl-transferring)] kinase isozyme 1, mitochondrial; assay: Inhibition of PDK1 in human NCI-H1975 cells assessed as switch of pyruvate metabolism from lactate production to oxidative phosphorylation by measuring decrease in extracellular acidification rate at 20 uM pretreated for 4 hrs followed by glucose addition for 1 hr measured for 16 mins; format: cell-based
[32] = biological target: T1, [Pyruvate dehydrogenase (acetyl-transferring)] kinase isozyme 1, mitochondrial; assay: Inhibition of PDK1 in human NCI-H1975 cells assessed as switch of pyruvate metabolism from lactate production to oxidative phosphorylation by measuring increase in basal oxygen consumption rate at 20 uM incubated for 4 hrs followed by FCCP addition for 1 hr measured for 16 mins; format: cell-based
Sus scrofa [33] = species: Sus scrofa; assay: Inhibition of porcine PDK1 assessed as activation of pyruvate dehydrogenase complex at 80 uM measured after 3 mins relative to control
[34] = biological target: T1, [Pyruvate dehydrogenase (acetyl-transferring)] kinase isozyme 1, mitochondrial; assay: Inhibition of PDK1 in human NCI-H1975 cells assessed as switch of pyruvate metabolism from lactate production to oxidative phosphorylation by measuring decrease in extracellular acidification rate at 20 uM pretreated for 4 hrs followed by 2DG addition for 1 hr measured for 16 mins; format: cell-based
[35] = biological target: T1, [Pyruvate dehydrogenase (acetyl-transferring)] kinase isozyme 1, mitochondrial; assay: Inhibition of PDK1 in human NCI-H1975 cells assessed as reduction in pyruvate dehydrogenase phosphorylation at 10 uM after 24 hrs by Western blot analysis; format: cell-based
[36] = biological target: T1, [Pyruvate dehydrogenase (acetyl-transferring)] kinase isozyme 1, mitochondrial; assay: Inhibition of PDK1 in human NCI-H1975 cells assessed as switch of pyruvate metabolism from lactate production to oxidative phosphorylation by measuring increase in basal oxygen consumption rate at 20 uM incubated for 4 hrs followed by antimycinA addition for 1 hr measured for 16 mins; format: cell-based

Epidermal growth factor receptor, sequence (P00533 whole entry): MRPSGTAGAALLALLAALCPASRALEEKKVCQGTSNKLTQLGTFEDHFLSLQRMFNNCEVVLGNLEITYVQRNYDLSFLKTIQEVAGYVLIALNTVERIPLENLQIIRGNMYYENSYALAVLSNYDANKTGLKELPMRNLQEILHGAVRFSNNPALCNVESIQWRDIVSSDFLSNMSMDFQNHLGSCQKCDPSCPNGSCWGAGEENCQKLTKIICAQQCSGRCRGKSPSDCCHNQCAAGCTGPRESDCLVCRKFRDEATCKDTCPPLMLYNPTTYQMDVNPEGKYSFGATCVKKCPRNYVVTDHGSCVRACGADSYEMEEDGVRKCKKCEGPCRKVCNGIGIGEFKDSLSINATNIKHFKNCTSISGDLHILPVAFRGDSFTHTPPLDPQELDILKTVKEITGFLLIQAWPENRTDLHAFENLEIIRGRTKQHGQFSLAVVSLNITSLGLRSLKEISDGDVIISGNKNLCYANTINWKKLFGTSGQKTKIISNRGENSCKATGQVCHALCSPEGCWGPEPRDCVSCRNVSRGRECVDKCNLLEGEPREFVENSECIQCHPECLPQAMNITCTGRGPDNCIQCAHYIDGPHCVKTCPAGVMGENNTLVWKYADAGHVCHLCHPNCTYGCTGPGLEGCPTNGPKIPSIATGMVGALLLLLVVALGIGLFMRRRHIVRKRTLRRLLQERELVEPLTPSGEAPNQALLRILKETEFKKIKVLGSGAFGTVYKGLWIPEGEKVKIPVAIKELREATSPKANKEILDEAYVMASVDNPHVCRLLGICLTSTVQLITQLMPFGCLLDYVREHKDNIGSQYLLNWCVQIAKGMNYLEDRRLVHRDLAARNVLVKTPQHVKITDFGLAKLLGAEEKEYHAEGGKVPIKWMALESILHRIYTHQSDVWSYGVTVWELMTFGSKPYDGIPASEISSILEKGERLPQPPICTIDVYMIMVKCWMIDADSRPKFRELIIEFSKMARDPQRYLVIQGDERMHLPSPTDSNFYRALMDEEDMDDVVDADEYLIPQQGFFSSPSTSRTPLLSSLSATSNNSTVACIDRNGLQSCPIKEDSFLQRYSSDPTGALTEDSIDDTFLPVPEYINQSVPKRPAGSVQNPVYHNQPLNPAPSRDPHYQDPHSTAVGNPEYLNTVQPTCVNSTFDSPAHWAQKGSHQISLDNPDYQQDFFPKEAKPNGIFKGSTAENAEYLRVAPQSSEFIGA
RAC-alpha serine/threonine-protein kinase, sequence (P31749 whole entry): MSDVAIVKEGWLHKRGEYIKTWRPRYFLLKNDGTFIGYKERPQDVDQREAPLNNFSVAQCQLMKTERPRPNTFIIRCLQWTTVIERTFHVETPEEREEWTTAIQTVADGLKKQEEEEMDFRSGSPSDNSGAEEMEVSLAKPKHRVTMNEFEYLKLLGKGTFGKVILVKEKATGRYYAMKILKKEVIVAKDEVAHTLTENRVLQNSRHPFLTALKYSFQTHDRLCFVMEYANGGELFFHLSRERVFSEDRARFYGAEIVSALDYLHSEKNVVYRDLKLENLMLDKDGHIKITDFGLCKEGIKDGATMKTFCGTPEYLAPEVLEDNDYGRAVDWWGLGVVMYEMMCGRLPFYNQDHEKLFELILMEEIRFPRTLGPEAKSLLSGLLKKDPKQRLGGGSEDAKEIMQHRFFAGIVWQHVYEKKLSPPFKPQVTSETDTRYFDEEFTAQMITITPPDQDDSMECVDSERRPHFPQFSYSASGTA
T1 sequence (Q15118 whole entry): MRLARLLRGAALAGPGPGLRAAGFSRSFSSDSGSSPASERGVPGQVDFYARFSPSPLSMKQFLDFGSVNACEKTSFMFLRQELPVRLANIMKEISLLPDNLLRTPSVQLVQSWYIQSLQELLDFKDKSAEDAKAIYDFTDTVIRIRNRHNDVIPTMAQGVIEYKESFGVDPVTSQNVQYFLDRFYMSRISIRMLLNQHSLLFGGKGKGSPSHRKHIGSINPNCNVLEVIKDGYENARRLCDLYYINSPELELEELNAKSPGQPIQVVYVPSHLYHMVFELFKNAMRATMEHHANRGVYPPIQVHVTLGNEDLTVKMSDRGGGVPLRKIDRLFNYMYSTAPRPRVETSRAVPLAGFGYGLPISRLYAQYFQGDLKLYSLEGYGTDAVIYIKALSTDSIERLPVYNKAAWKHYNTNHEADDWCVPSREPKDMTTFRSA

Row | inhibition [2] | inhibition [3] | pKd [4] | inhibition [6] | inhibition [7] | inhibition [10] | inhibition [12] | inhibition (INH) [13] | inhibition (INH) [17] | inhibition (INH) [18] | pIC50 (NCI-H1975 [19]) | Compound | inhibition at 6 µM (A549 [1]) | inhibition at 6 µM (NCI-H1975 [5]) | inhibition at 12 µM (NCI-H1975 [8]) | inhibition at 2 µM (NCI-H1650 [9]) | inhibition at 2 µM (NCI-H1975 [11]) | inhibition at 2 µM (A549 [15]) | inhibition at 6 µM (NCI-H1650 [16]) | inhibition at 12 µM (NCI-H1650 [20]) | inhibition at 12 µM (A549 [22]) | other results
1 | Active | Active | 6.01 | Active | Active | inactive | 75.1% | Not Active | Not Active | Not Active | 5.80 | CC(C)c1ccc(C(=O)C(Cl)Cl)cc1[N+](=O)[O-] | 75.9% | 95% | 99.5% | 36.4% | 59.8% | 22.7% | 90% | 100% | 96.5% | inhibition [14]: Active; inhibition [21]: Active
2 | Active | Active | 5.89 | Active | Active | inactive | 66.6% | Not Active | Not Active | Not Active | 5.76 | CCc1ccc(C(=O)C(Cl)Cl)cc1[N+](=O)[O-] | 71.4% | 93.2% | 98.9% | 35.6% | 57% | 20.2% | 79.3% | 100% | 93.7% | inhibition [14]: Active; inhibition [21]: Active
3 | Active | Active | 6.24 | Active | Active | inactive | 84.3% | Not Active | Not Active | Not Active | 5.90 | CC(C)Oc1ccc(C(=O)C(Cl)Cl)cc1[N+](=O)[O-] | 92.5% | 99.1% | 99.5% | 48.6% | 65.5% | 27.7% | 95.9% | 99.5% | 99.7% | inhibition [23]: Active; inhibition (Sus scrofa [24]): Active; inhibition [25]: Active; inhibition [14]: Active; inhibition [21]: Active; inhibition [26]: Active; inhibition [27]: Active

Row | Compound | inhibition [2] | inhibition [3] | pKd [4] | inhibition [6] | inhibition [7] | inhibition [10] | inhibition [12] | inhibition (INH) [13] | inhibition (INH) [17] | inhibition (INH) [18] | pIC50 (NCI-H1975 [19]) | inhibition at 6 µM (A549 [1]) | inhibition at 6 µM (NCI-H1975 [5]) | inhibition at 12 µM (NCI-H1975 [8]) | inhibition at 2 µM (NCI-H1650 [9]) | inhibition at 2 µM (NCI-H1975 [11]) | inhibition at 2 µM (A549 [15]) | inhibition at 6 µM (NCI-H1650 [16]) | inhibition at 12 µM (NCI-H1650 [20]) | inhibition at 12 µM (A549 [22]) | other results
4 | O=C(c1ccccc1)C(Cl)Cl |  |  |  |  |  |  | inactive | Active | Active | Active | 5.10 | 28.5% | 54.3% | 83.7% | 15.3% | 13.2% | 9.2% | 31.3% | 47.9% | 54.4% | inhibition [28]: Active; inhibition [29]: Active; inhibition [30]: inactive; inhibition [31]: inactive; inhibition (Sus scrofa [24]): inactive; inhibition [32]: Active; inhibition (Sus scrofa [33]): 36.6%; inhibition [34]: Active; inhibition [35]: Active; inhibition [36]: inactive
